Assay results from patent US20180265487A1, “SWEET TASTE MODULATORS” (Altria Client Services LLC, priority 2017, published 2018).

Tested on: sweet taste perception
Test: time-intensity test of sweet taste (12 panelists, sample vs reference solution of 2 vol % sucrose, 1 vol % ethanol)
Type: in vivo, human
Conditions: for concentration at which perceived intensity and duration of sweet taste perception are increased: in 2 vol % sucrose
Description: The influence of the sweet taste modulators on the temporal perception of sweetness can be shown by means of time-intensity tests. For time-intensity tests, a reference solution containing 2 vol % sucrose and 1 vol % ethanol in water and sample solutions (i.e., concentration of stock aqueous solutions listed in Table 1 below) containing 2 vol % sucrose and 1 vol % ethanol and the test compound in different concentrations in water were rated on a horizontal, non-structured line scale from 0 (not detectable) to 10 (very strongly detectable). The reference solution served as a baseline for the time-intensity tests upon which the sample solutions were compared for the temporal perception of sweetness. Twelve panelists were asked to rinse their mouths with an aliquot (10 mL) of a solution and immediately start rating solution's sweet taste intensity for a period of 5 seconds. […] The rating results were the averages from the twelve panelists.
FIGS. 7A and 7B illustrate empirical (FIG. 7A) and predictive (FIG. 7B) model time-intensity experiments using the reference solution containing 2 vol % sucrose and 1 vol % ethanol in water and a sample solution containing 50 μM EMF, 2 vol % sucrose and 1 vol % ethanol in water. Time intensity tests enable continuous measurement of the intensity of taste impressions.
After calculating average time intensity (TI) curves using FIZZ biosystems calculations software and determining the TI curves integrated value (i.e., area under the curve), duration, and duration of the increasing and decreasing phase from individual TI curves, the trapezoidal method was applied after extraction of data points at 5% and 95% of the respective maximum intensity on the increasing and decreasing sections of the individual TI curves. The following parameters were extracted for further data analysis: maximum intensity (Imax) of taste perception experienced, total area under the curve (Atotal) 1 (i.e., total amount) of taste perception experienced and total duration (Dtotal) of taste perception experienced. Extracted parameters of sample solutions were normalized on the reference solution from the same evaluation session and a two-way analysis of variance (ANOVA) was conducted.
Table 2 below illustrates an overview of all p-values generated by two-way ANOVA of maximum intensity (Imax), total area under the curve (Atotal) land total duration (Dtotal) for sample solutions containing 5-ethyoxymethylfurfural (EMF), as well as ester of 5-hydroxymethylfurfural and vanillic acid (VanMF), 4-hydrozybenzaldehyde (pHBA), syringic aldehyde (SyA), and sinapic aldehyde (SinA), respectively. P-values (i.e., calculated probabilities) are statistical measures ranging from 0 to 1 which quantify the statistical significance of a data set. In other words, the p-value is a function of the observed sample results (a test statistic) relative to a statistical model, which measures how extreme the observation is. Smaller p-values are indicative of scaling significance. For example, p <0.05 are “significant” (*) (i.e., less than 1 in 20 chance, or 5%, of the data set being erroneous or inaccurate); p <0.01 are “highly significant” (**) (i.e., less than 1 in 100 chance, or 1%, of the data set being erroneous or inaccurate); and, p <0.001 are “very highly significant” (***) (less than 1 in 1000 chance, or 0.1%, of the data set being erroneous or inaccurate). Measured concentrations of EMF, VanMF, pHBA, SyA, and SinA in the sample solutions used in the statistical analysis are 10 μmol/L, 25 μmol/L, and 50 μmol/L, respectively. The p-values in Table 2 below relate to the statistical significance of the Imax, Atotal, and Dtotal values of sample solutions containing EMF, VanMF, pHBA, SyA, and SinA, respectively, in FIGS. 8-12.

CCOCc1ccc(C=O)o1 [EMF, 5-ethoxymethyl-2-furaldehyde]
increase of Atotal vs reference solution (significance) (10 μM): no significant increases
increase of Dtotal vs reference solution (significance) (10 μM): no significant increases
increase of Imax vs reference solution (significance) (10 μM): no significant increases
increase of Atotal vs reference solution (significance) (25 μM): no significant increases
increase of Dtotal vs reference solution (significance) (25 μM): no significant increases
increase of Imax vs reference solution (significance) (25 μM): very highly significant increase
increase of Atotal vs reference solution (significance) (50 μM): *** (p <0.001 are “very highly significant” (***))
increase of Dtotal vs reference solution (significance) (50 μM): *** (p <0.001 are “very highly significant” (***))
increase of Imax vs reference solution (significance) (50 μM): *** (p <0.001 are “very highly significant” (***))
total area under the curve (Atotal) compared with reference solution (50 μM in 2 vol % sucrose, 1 vol % ethanol): greater than Atotal for the reference solution
maximum intensity (Imax) of sweet taste perception on the intensity scale (50 μM in 2 vol % sucrose, 1 vol % ethanol, scale 0 to 10, reference solution about 3.5): ~5
concentration at which perceived intensity and duration of sweet taste perception are increased (1 vol % ethanol): at least 50 μM

COc1cc(/C=C/C=O)cc(OC)c1O [SinA, sinapic aldehyde]
increase of Atotal vs reference solution (significance) (10 μM): significant increases
increase of Dtotal vs reference solution (significance) (10 μM): no significant increase
increase of Imax vs reference solution (significance) (10 μM): significant increases
increase of Atotal vs reference solution (significance) (25 μM): significant increases
increase of Dtotal vs reference solution (significance) (25 μM): significant increases
increase of Imax vs reference solution (significance) (25 μM): significant increases
increase of Atotal vs reference solution (significance) (50 μM): significant increases
increase of Dtotal vs reference solution (significance) (50 μM): significant increases
increase of Imax vs reference solution (significance) (50 μM): significant increases

COc1cc(C=O)cc(OC)c1O [SyA, syringic aldehyde]
increase of Atotal vs reference solution (significance) (10 μM): do not have a significant influence
increase of Dtotal vs reference solution (significance) (10 μM): do not have a significant influence
increase of Imax vs reference solution (significance) (10 μM): do not have a significant influence
increase of Atotal vs reference solution (significance) (25 μM): *** (p <0.001 are “very highly significant” (***))
increase of Dtotal vs reference solution (significance) (25 μM): * (p <0.05 are “significant” (*))
increase of Imax vs reference solution (significance) (25 μM): ** (p <0.01 are “highly significant” (**))
increase of Atotal vs reference solution (significance) (50 μM): ** (p <0.01 are “highly significant” (**))
increase of Imax vs reference solution (significance) (50 μM): ** (p <0.01 are “highly significant” (**))

COc1cc(C(=O)OCc2ccc(C=O)o2)ccc1O [VanMF, ester of 5-hydroxymethylfurfural and vanillic acid]
increase of Atotal vs reference solution (significance) (10 μM): ** (p <0.01 are “highly significant” (**))
increase of Dtotal vs reference solution (significance) (10 μM): ** (p <0.01 are “highly significant” (**))
increase of Imax vs reference solution (significance) (10 μM): ** (p <0.01 are “highly significant” (**))
increase of Atotal vs reference solution (significance) (25 μM): * (p <0.05 are “significant” (*))
increase of Dtotal vs reference solution (significance) (25 μM): * (p <0.05 are “significant” (*))
increase of Imax vs reference solution (significance) (25 μM): ** (p <0.01 are “highly significant” (**))
increase of Atotal vs reference solution (significance) (50 μM): no significant increases
increase of Dtotal vs reference solution (significance) (50 μM): * (p <0.05 are “significant” (*))
increase of Imax vs reference solution (significance) (50 μM): no significant increases

O=Cc1ccc(O)cc1 [pHBA, 4-hydrozybenzaldehyde]
increase of Atotal vs reference solution (significance) (10 μM): No significant increases
increase of Dtotal vs reference solution (significance) (10 μM): No significant increases
increase of Imax vs reference solution (significance) (10 μM): No significant increases
increase of Atotal vs reference solution (significance) (25 μM): ** (p <0.01 are “highly significant” (**))
increase of Imax vs reference solution (significance) (25 μM): *** (p <0.001 are “very highly significant” (***))
increase of Atotal vs reference solution (significance) (50 μM): ** (p <0.01 are “highly significant” (**))
increase of Dtotal vs reference solution (significance) (50 μM): ** (p <0.01 are “highly significant” (**))
increase of Imax vs reference solution (significance) (50 μM): ** (p <0.01 are “highly significant” (**))
concentration at which perceived intensity and duration of sweet taste perception are increased (1 vol % ethanol): 50 µM
